Calls of active or inactive are those of the source. The rule behind the calls is not given here.
What was measured:
NCI-H69 [1] = assay: Induction of apoptosis in human NCI-H69 cells assessed as increase in cleaved-caspase 3 protein expression at 0.1 to 100 nM measured after 24 hrs by Western blot analysis; format: functional, cell-based; conditions: dose 0.1-100 nM
H69AR [2] = assay: Induction of apoptosis in human NCI-H69AR cells assessed as early apoptotic cells at 100 nM incubated for 24 hrs by AnnexinV-FITC/PI staining based flow cytometry analysis (reference value: 0.35 %); format: functional
H69AR [3] = assay: Induction of apoptosis in human NCI-H69AR cells assessed as early apoptotic cells at 10 nM incubated for 24 hrs by AnnexinV-FITC/PI staining based flow cytometry analysis (reference value: 0.35 %); format: functional
SW-620 = assay: Antiproliferative activity against human SW-620 cells assessed as inhibition of cell growth incubated for 72 hrs by SRB assay; format: functional, cell-based; conditions: SW-620, 72 h
MCF7 = assay: Antiproliferative activity against human MCF7 cells assessed as inhibition of cell growth incubated for 72 hrs by SRB assay; format: functional, cell-based; conditions: MCF7, 72 h
H69AR [4] = assay: Induction of apoptosis in human NCI-H69AR cells assessed as reduction in Bcl-2 mRNA expression at 0.1 to 100 nM incubated for 24 hrs by RT-PCR analysis; format: functional, cell-based; conditions: dose 0.1-100 nM
NCI-H446 [5] = assay: Antitumor activity against Irinotecan-resistant human NCI-H446 cells xenografted in BALB/c nude mouse assessed as tumor weight at 3 mg/kg, IG administered once a week and measured 3 times a week for 35 days relative to control; format: functional; conditions: NCI-H446, po, 840 h, time 35 day, read-out: TGI
NCI-H69 [6] = assay: Induction of apoptosis in human NCI-H69 cells assessed as reduction in Mcl-1 mRNA expression at 0.1 to 100 nM incubated for 24 hrs by RT-PCR analysis; format: functional, cell-based; conditions: dose 0.1-100 nM
NCI-H69 [7] = assay: Induction of apoptosis in human NCI-H69 cells assessed as reduction in survivin mRNA expression at 0.1 to 100 nM incubated for 24 hrs by RT-PCR analysis; format: functional, cell-based; conditions: dose 0.1-100 nM
NCI-H446 [8] = assay: Induction of apoptosis in human NCI-H446 cells assessed as reduction in Bcl-2 mRNA level at 0.1 to 100 nM incubated for 24 hrs by RT-PCR analysis; format: functional, cell-based; conditions: dose 0.1-100 nM
H69AR [9] = assay: Induction of apoptosis in human NCI-H69AR cells assessed as dead cells at 10 nM incubated for 24 hrs by AnnexinV-FITC/PI staining based flow cytometry analysis (reference value: 1.92 %); format: functional
NCI-H446 [10] = assay: Antiproliferative activity against etoposide/cisplatin combination-resistant human NCI-H446 cells assessed as inhibition of cell growth incubated for 72 hrs by SRB assay; format: functional, cell-based; conditions: NCI-H446, 72 h
[11] = Resistance index, ratio of IC50 for antiproliferative activity against Irinotecan-resistant human NCI-H446 cells to IC50 for antiproliferative activity against human NCI-H446 cells; format: functional
NCI-H69 [12] = assay: Antiproliferative activity against human NCI-H69 cells assessed as inhibition of cell growth incubated for 72 hrs by SRB assay; format: functional, cell-based; conditions: NCI-H69, 72 h
NCI-H446 [13] = assay: Induction of apoptosis in human NCI-H446 cells assessed as inhibition of Bcl-1 protein expression at 0.1 to 100 nM incubated for 24 hrs by Western blot analysis; format: functional, cell-based; conditions: dose 0.1-100 nM
H69AR [14] = assay: Induction of apoptosis in human NCI-H69AR cells assessed as reduction in Mcl-1 mRNA expression at 0.1 to 100 nM incubated for 24 hrs by RT-PCR analysis; format: functional, cell-based; conditions: dose 0.1-100 nM
H69AR [15] = assay: Induction of apoptosis in human NCI-H69AR cells assessed as inhibition of XIAP protein expression at 0.1 to 100 nM incubated for 24 hrs by Western blot analysis; format: functional, cell-based; conditions: dose 0.1-100 nM
2008 = assay: Antiproliferative activity against human 2008 cells assessed as inhibition of cell growth incubated for 72 hrs by SRB assay; format: functional, cell-based; conditions: Homo sapiens, 2008, 72 h
NCI-H446 [16] = assay: Induction of apoptosis in human NCI-H446 cells assessed as increase in cleaved-caspase 3 protein expression at 0.1 to 100 nM measured after 24 to 48 hrs by Western blot analysis; format: functional, cell-based; conditions: dose 0.1-100 nM, time 24-48 hrs
H69AR [17] = assay: Induction of apoptosis in human NCI-H69AR cells assessed as inhibition of Bcl-2 protein expression at 0.1 to 100 nM incubated for 24 hrs by Western blot analysis; format: functional, cell-based; conditions: dose 0.1-100 nM
HepG2 = assay: Antiproliferative activity against human HepG2 cells assessed as inhibition of cell growth incubated for 72 hrs by SRB assay; format: functional, cell-based; conditions: HepG2, 72 h
U-87 MG = assay: Antiproliferative activity against human U87 cells assessed as inhibition of cell growth incubated for 72 hrs by SRB assay; format: functional, cell-based, U-87MG ATCC
Mus musculus = assay: Downregulation of Bcl-2 protein expression in tumor of BALB/c mouse xenografted with human NCI-H446 cells at 0.75 mg/kg, IG administered intragastrically once a week for 28 days by western blot analysis; format: functional, organism-based; conditions: time 28.0 day
H69AR [18] = assay: Induction of apoptosis in human NCI-H69AR cells assessed as increase in cleaved-caspase 9 protein expression at 0.1 to 100 nM measured after 24 hrs by Western blot analysis; format: functional, cell-based; conditions: dose 0.1-100 nM
NCI-H446 [19] = assay: Antitumor activity against human NCI-H446 cells xenografted in BALB/c nude mouse assessed as tumor growth inhibition at 3 mg/kg, IG administered once a week for 28 days by electronic caliper method relative to control; format: functional; conditions: NCI-H446, po, 672 h, time 28 day, read-out: TGI
NCI-H446 [20] = assay: Induction of apoptosis in human NCI-H446 cells assessed as early apoptotic cells at 1 nM incubated for 24 hrs by AnnexinV-FITC/PI staining based flow cytometry analysis (reference value: 3.1 %); format: functional
NCI-H446 [21] = assay: Antitumor activity against human NCI-H446 cells xenografted in BALB/c nude mouse assessed as tumor growth inhibition at 1.5 mg/kg, IG administered once a week for 28 days by electronic caliper method relative to control; format: functional; conditions: NCI-H446, po, 672 h, time 28 day, read-out: TGI
H69AR [22] = assay: Induction of apoptosis in human NCI-H69AR cells assessed as late apoptotic cells at 100 nM incubated for 24 hrs by AnnexinV-FITC/PI staining based flow cytometry analysis (reference value: 2.99 %); format: functional
NCI-H446 [23] = assay: Induction of apoptosis in human NCI-H446 cells assessed as inhibition of Mcl-1 protein expression incubated for 24 hrs by Western blot analysis; format: functional, cell-based; conditions: dose 0.1-100 nM
H69AR [24] = assay: Induction of apoptosis in human NCI-H69AR cells assessed as increase in cleaved-PARP protein expression at 0.1 to 100 nM measured after 24 hrs by Western blot analysis; format: functional, cell-based; conditions: dose 0.1-100 nM
NCI-H69 [25] = assay: Induction of apoptosis in human NCI-H69 cells assessed as reduction in XIAP mRNA expression at 0.1 to 100 nM incubated for 24 hrs by RT-PCR analysis; format: functional, cell-based; conditions: dose 0.1-100 nM
NCI-H69 [26] = assay: Induction of apoptosis in human NCI-H69 cells assessed as increase in cleaved-PARP protein expression at 0.1 to 100 nM measured after 24 hrs by Western blot analysis; format: functional, cell-based; conditions: dose 0.1-100 nM
NCI-H446 [27] = assay: Induction of apoptosis in human NCI-H446 cells assessed as early apoptotic cells at 0.1 nM incubated for 24 hrs by AnnexinV-FITC/PI staining based flow cytometry analysis (reference value: 3.1 %); format: functional

CC[C@@]1(O)C(=O)OCc2c1cc1n(c2=O)Cc2c-1nc1cc3c(cc1c2-c1ccoc1)OCO3
Activity (NCI-H69 [1]): Active
Activity (H69AR [2]): 1.73%
Activity (H69AR [3]): 0.57%
IC50 (SW-620): 0.11 nM
IC50 (MCF7): 9.49 nM
Activity (H69AR [4]): Active
inhibition in vivo at 3 mg/kg (NCI-H446 [5]): 93.4%
Activity (NCI-H69 [6]): Active
Activity (NCI-H69 [7]): Active
Activity (NCI-H446 [8]): Active
Activity (H69AR [9]): 1.82%
IC50 (NCI-H446 [10]): 0.49 nM
Ratio IC50 [11]: 0.64
IC50 (NCI-H69 [12]): 14.6 nM
inhibition (NCI-H446 [13]): Active
Activity (H69AR [14]): Active
inhibition (H69AR [15]): Active
IC50 2008: 10.2 nM
Activity (NCI-H446 [16]): Active
inhibition (H69AR [17]): Active
IC50 (HepG2): 1.42 nM
IC50 (U-87 MG): 19.1 nM
Activity (Mus musculus): Active
Activity (H69AR [18]): Active
inhibition in vivo at 3 mg/kg (NCI-H446 [19]): 95.5%
Activity (NCI-H446 [20]): 13.08%
inhibition in vivo at 1.5 mg/kg (NCI-H446 [21]): 73.7%
Activity (H69AR [22]): 32.38%
inhibition (NCI-H446 [23]): Active
Activity (H69AR [24]): Active
Activity (NCI-H69 [25]): Active
Activity (NCI-H69 [26]): Active
Activity (NCI-H446 [27]): 7%

Source: ChEMBL document CHEMBL5108002, “Design, synthesis, and biological evaluation of novel 7-substituted 10,11-methylenedioxy-camptothecin derivatives against drug-resistant small-cell lung cancer in vitro and in vivo” (Eur J Med Chem, 2022)
